From patent publication EP1598418A1, “STABILISED COMPOSITION FOR FLUORIMETRIC, COLORIMETRIC OR CHEMOLUMINESCENT ASSAYS, KITS CONTAINING SAME AND PRODUCTION METHOD THEREOF” (BIOTOOLS BIOTECHNOLOGICAL & MEDICAL LABORATORIES, S.A., priority 2003, dated 2004)

Columns and labels:
[1] = system: probes marked with biotin or digoxygenin groups; test: Synthesis of digoxygenin-marked probes with desiccated mixtures and molecular hybridisation test (Example 9); details: vs fresh mixture
[2] = system: DTCS Quick Start Master Mix; test: Sequencing reaction with desiccated, stabilised mixture with fluorescent terminators after storage (Example 6); type: biochemical, human papillomavirus; details: vs fresh mixture
Experimental: To test the possibility of gelling reaction mixtures for sequencing nucleic acids the CEQ 200 Dye Terminator Cycle Sequencing (DTCS) Quick Start Kit (Beckman Coulter) was employed, which uses a PCR sequencing system in a single tube by incorporating four different fluorescent terminators. The sequencing reactions were later analysed in a CEQ 2000 XL DNA Analysis System (Beckman Coulter) capillary electrophoresis automatic sequencing system.
Reaction mixtures were prepared containing 4 microlitres of DTCS Quick Start Master Mix, 1 microlitre of universal primer M13-17 and the suitable volume of each stabilising mixture shown in Table 1.
In parallel, in order to check the evolution of the activity of the desiccated and stabilised tubes, the same plasmid was sequenced using a fresh sequencing mixture in standard conditions. Finally, the sequencing reactions were analysed in the CEQ 200XL system following the supplier's instructions.

[3] = system: Scorpion probes; test: Real-time amplification with desiccated, stabilised reaction mixture with Scorpion probes after storage (Example 4); type: biochemical, M. tuberculosis; details: conserved at T 25 °C, vs fresh mixture
[4] = system: FRET probes; test: Real-time amplification with desiccated, stabilised reaction mixture with FRET probes after storage (Example 1); type: biochemical, P. falciparum; details: vs fresh mixture
[5] = system: Molecular Beacon (MB) probe; test: Real-time amplification with desiccated, stabilised reaction mixture with Molecular Beacon probe after storage (Example 3); type: biochemical, P. falciparum; details: vs fresh mixture
[6] = system: oligonucleotides chemically modified by including biotin and/or digoxygenin groups; test: Amplification with desiccated biotin/digoxygenin oligonucleotides and colorimetric ELISA plate assay (Example 7); type: biochemical, oncogenic HPV; details: vs fresh mixture
Experimental: To do so, 4 oligonucleotides were designed that hybridised with the genome of region E6-E7 of oncogenic HPV species.
To do so, an ELISA microplate with a high-binding capacity to streptoavidin (Biospa) was activated following a standard fixing protocol. Then, after blocking the plate by incubation with gelatine, the amplified products of the stabilising mixtures 1, 2 and 3 described in Example 7.A were analysed by a colorimetry assay according to the following experimental process: • A.- Amplification products using an onligonucleotide marked with digoxygenin (mixture 1 in Example 7.A). The biotinated probe A11 was fixed to the plate and the amplified product was hybridised. […] The amplification product was fixed to the plate with the first biotinilate and then hybridised with the first A12 marked with digoxygenin.

[7] = system: TaqMan probes; test: Real-time amplification with desiccated, stabilised reaction mixture with TaqMan probes after storage (Example 2); type: biochemical, P. falciparum; details: vs fresh mixture
[8] = system: Anti-digoxygenin antibodies; test: Colorimetric assay of stabilised proteins immobilised in modified glasses (Example 10.4); type: biochemical, P. falciparum; details: vs fresh mixture
Experimental: To test the possibility of stabilising proteins that have been previously immobilised in pre-treated glass supports, the usual format of microarray systems, two different alternatives were tested as in the previous experiment.
Approach 1. Stabilisation of supports with previously fixed protein. Anti-digoxygenin antibodies were fixed to glass supports pre-treated with aldehyde. To do so, in each support slide 1 microlitre spots were applied of the solution of each protein at a concentration of 30 ng/µl. The slides with the immobilised protein were then coated with a thin layer of each of the stabilising mixtures and then desiccated in a vacuum oven at 25°C and 50 mbar pressure.
(§1) Approach 2. Fixation to the slides of the protein pre-mixed with the stabilising mixtures. A mixture was prepared of each of the probes with the suitable volumes of the stabilising mixtures described in Table 1. Then the mixtures of protein were applied to the various slides with the fixing conditions indicated for each glass format.
(§2) To test the viability of each slide prepared, a colorimetric assay was performed with formation of precipitate products. To do so, the slides were washed for 5 minutes in PBS 1X at room temperature to eliminate the protective layer.

[9] = system: nucleic acids immobilised in modified glasses; test: Colorimetric assay of stabilised nucleic acids immobilised in modified glasses (Example 10.3); type: biochemical, HPV 16; details: vs fresh mixture
Experimental: Approach 1. Stabilisation of supports with previously fixed nucleic acids. HPV specific probes were fixed to glass supports pre-treated with polylysiun, aldehyde, epoxy, superepoxy and silane. To do so, in each support slide 1 microlitre spots were applied of the solution of each oligonucleotide at a concentration of 20 µM in the conditions indicated for each glass format. The slides with the immobilised oligonucleotides were then coated with a thin layer of each of the stabilising mixtures and then desiccated in a vacuum oven at 25°C and 50 mbar pressure.
as §1, with “the nucleic acids” for “the protein”, “of oligonucleotides” for “of protein”
as §2, with “layer. Then the slides were incubated in the presence of an amplified and previously denatured HPV 16 product using the probes A11 and A12.” for “layer.”

[10] = system: reaction mixture with SYBR Green; test: Real-time amplification with desiccated, stabilised reaction mixture with SYBR Green after storage (Example 5); type: biochemical, oncogenic papillomaviruses; details: conserved at T 25 °C, vs fresh mixture
Experimental: To test the efficiency of intercalated fluorophores such as SYBR Green included in desiccated and stabilised reaction mixtures, reaction mixtures were prepared for amplifying a 250 bp fragment corresponding to region E6-E7 of oncogenic papillomaviruses, using the same reagents as described in Example 1. In this case the unit "DNA Engine OPTICON™ 2 System" (MJ Research) was used. […] Also to each phial was added […] of SYBR Green 1 (Molecular probes).
Various tubes were prepared as described above, adding to each the suitable volume of each stabilising mixture shown in Table 1.
In parallel, in order to check the evolution of the activity of the desiccated tubes, DNA samples were amplified using a fresh mixture in the same amplification conditions.
The result of the amplification reaction was analysed in every case by inspecting the fluorescence curve and determining the crossing point, following the instructions of the equipment software, for each reaction tube both fresh and desiccated and stabilised. […] The samples of patients infected with oncogenic HPV gave positive results in every case, while patients infected with non-oncogenic HPV, or not infected with HPV, gave negative results in every case.

[11] = system: antidigoxygenin antibody; test: Colorimetry assay of stabilised protein immobilised in ELISA microplates (Example 10.2); type: biochemical, HPV; details: vs fresh mixture
Experimental: To do so each dimple was incubated with 1µg of antidigoxygenin antibody (Roche).
The amplified product was incubated for 30 minutes in the dimples with the antibody immobilised. The amplified products immobilised in the plate by the union of the digoxygenin group of the amplicons and the immobilised anti-digoxygenin group were analysed by a colorimetric assay. […] The colorimetric reaction was finally analysed by measuring absorption at 415 nm.

[12] = system: streptoavidin conjugated with HRP (Str-HRP) and anti-digoxygenin conjugated with alkaline phospatase (anti-DIG-AP); test: Colorimetric ELISA plate activity test of desiccated, stabilised conjugates (Example 8); type: biochemical, HPV 16; details: conserved at T 25 °C, vs fresh mixture
Experimental: In 0.2 ml amplification tubes were added 100 microlitres of a 1/250 dilution in a blocking solution of the conjugate Str-HRP (Biospa). In parallel, 0.2 ml phials were prepared in which 100 microlitres were added of a 1/250 dilution in a blocking solution of anti-DIG-AP (Sigma).
For the activity assay of the conjugate anti-DIG-AP an ELISA plate was used in which the dimples had been previously coated with streptoavidin. For the activity assay of conjugate Str-HRP a plate was used instead with dimples previously coated with anti-DIG antibodies. The amplified products were incubated in each plate to allow the immobilisation of the amplicons in the plate.

[13] = system: nucleic acids immobilised in ELISA microplates; test: Amplification and colorimetric detection with stabilised nucleic acids immobilised in ELISA microplates (Example 10.1); details: vs fresh mixture
[14] = target: avidin (Gallus gallus, UniProt P02701); details: avidin/biotin complex; cited from earlier work
avidin, sequence (P02701 25-152): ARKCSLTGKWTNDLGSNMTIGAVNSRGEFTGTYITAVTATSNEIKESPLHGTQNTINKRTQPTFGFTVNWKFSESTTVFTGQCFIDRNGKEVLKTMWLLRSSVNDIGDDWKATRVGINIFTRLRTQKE

Question: With `OC[C@H]1O[C@H](O[C@H]2O[C@H](CO)[C@@H](O)[C@H](O)[C@H]2O)[C@H](O)[C@@H](O)[C@@H]1O` [Trehalose] as the compound, how does the “activity of stabilising mixtures” value ([1]; conserved at T 4 °C) read?
Answer: The value was “++ (++, positive with 50-90% of the activity of the fresh mixture)”.

Question: And the “activity of stabilising mixtures” value ([1]; conserved at T 25 °C)?
Answer: The value was “+ (+, weak positive, under 50% of the activity of the fresh mixture)”.

Question: What about the “activity of stabilising mixtures” value ([2]; conserved at T 4 °C) of the same compound?
Answer: The value was “++ (++, positive with 50-90% of the activity of the fresh mixture)”.

Question: And the “activity of stabilising mixtures” value ([2]; conserved at T 25 °C)?
Answer: Its value is “+ (+, weak positive, under 50% of the activity of the fresh mixture)”.

Question: What about the “activity of stabilising mixtures” value [3] of the same compound?
Answer: Its value is “+ (+, weak positive, under 50% of the activity of the fresh mixture)”.

Question: And the “activity of stabilising mixtures” value ([4]; conserved at T 4 °C)?
Answer: Its value is “++ (++, positive with 50-90% of the activity of the fresh mixture)”.

Question: And the “activity of stabilising mixtures” value ([4]; conserved at T 25 °C)?
Answer: The value was “+ (+, weak positive, under 50% of the activity of the fresh mixture)”.

Question: What about the “activity of stabilising mixtures” value ([5]; conserved at T 4 °C) of the same compound?
Answer: The value was “++ (++, positive with 50-90% of the activity of the fresh mixture)”.

Question: What about the “activity of stabilising mixtures” value ([5]; conserved at T 25 °C) of the same compound?
Answer: Its value is “+ (+, weak positive, under 50% of the activity of the fresh mixture)”.

Question: What about the “activity of stabilising mixtures” value ([6]; conserved at T 4 °C) of the same compound?
Answer: Its value is “++ (++, positive with 50-90% of the activity of the fresh mixture)”.

Question: What about the “activity of stabilising mixtures” value ([6]; conserved at T 25 °C) of the same compound?
Answer: The value was “+ (+, weak positive, under 50% of the activity of the fresh mixture)”.

Question: What about the “activity of stabilising mixtures” value ([7]; conserved at T 4 °C) of the same compound?
Answer: The value was “++ (++, positive with 50-90% of the activity of the fresh mixture)”.

Question: And the “activity of stabilising mixtures” value ([7]; conserved at T 25 °C)?
Answer: Its value is “+ (+, weak positive, under 50% of the activity of the fresh mixture)”.

Question: And the “activity of stabilising mixtures” value ([8]; conserved at T 4 °C)?
Answer: The value was “++ (++, positive with 50-90% of the activity of the fresh mixture)”.

Question: And the “activity of stabilising mixtures” value ([8]; conserved at T 25 °C)?
Answer: Its value is “+ (+, weak positive, under 50% of the activity of the fresh mixture)”.

Question: And the “activity of stabilising mixtures” value ([9]; conserved at T 4 °C)?
Answer: The value was “++ (++, positive with 50-90% of the activity of the fresh mixture)”.

Question: And the “activity of stabilising mixtures” value ([9]; conserved at T 25 °C)?
Answer: Its value is “+ (+, weak positive, under 50% of the activity of the fresh mixture)”.

Question: And the “activity of stabilising mixtures” value [10]?
Answer: The value was “+ (+, weak positive, under 50% of the activity of the fresh mixture)”.

Question: What about the “activity of stabilising mixtures” value ([11]; conserved at T 4 °C) of the same compound?
Answer: Its value is “++ (++, positive with 50-90% of the activity of the fresh mixture)”.

Question: And the “activity of stabilising mixtures” value ([11]; conserved at T 25 °C)?
Answer: The value was “+ (+, weak positive, under 50% of the activity of the fresh mixture)”.

Question: And the “activity of stabilising mixtures” value [12]?
Answer: The value was “+ (+, weak positive, under 50% of the activity of the fresh mixture)”.

Question: What about the “activity of stabilising mixtures” value ([13]; conserved at T 4 °C) of the same compound?
Answer: The value was “++ (++, positive with 50-90% of the activity of the fresh mixture)”.

Question: What about the “activity of stabilising mixtures” value ([13]; conserved at T 25 °C) of the same compound?
Answer: The value was “+ (+, weak positive, under 50% of the activity of the fresh mixture)”.

Question: For `O=C(O)CCCC[C@@H]1SC[C@@H]2NC(=O)N[C@@H]21` [biotin, Biotin], which dissociation energy [14] is on record?
Answer: Its dissociation energy is 21 kcal/mol.
